Results: patent US12194040B2, “FAK inhibitor and drug combination thereof” (HINOVA PHARMACEUTICALS INC., priority 2018, dated 2025)
pIC50: −log10 of the molar value.

Legend:
[1] = target: FAK enzyme (Homo sapiens, UniProt Q05397); assay: Inhibitory activity on FAK enzyme (HTRF, Sa-XL665 / TK antibody-Eu3+); format: biochemical
Description: By referring to literature methods (Cancer Res. 2008, 68, 1935), the experiment of inhibitory activity on FAX enzyme was carried out. The details are as follows: the test compound was diluted to 1000 nM, and then subjected to 1:3 serial dilution with DMSO. 0.1 L of the solution was transferred into a 384-well plate, and 2 replicate wells were set up for each concentration. 5 µL of 2 FAK enzyme solution was added, then centrifuged at 1000 rpm for 1 min, and incubated at 25° C. for 15 min. 5 L of 2× substrate solution was added and incubate at 25° C. for 60 min. Then, 5 µL of Sa-XL665 solution and 5 μL of TK antibody-Eu3+ were added, and centrifuged at 1000 rpm for 1 min, then incubated at 25° C. for 60 min. Finally, Envision 2104 plate reader was used to read the fluorescence signal, and calculate the half inhibitory concentration IC50 of each compound on FAX enzyme.

[2] = Pharmacokinetic test in rats (PO, 10 mpk); format: in vivo; conditions: male SD rats, PO (gavage), plasma
Description: An appropriate amount of test drug (10 mg) was accurately weighed, and 0.25 ml of N,N-dimethylacetamide (DMA) was first added to dissolve it, then 0.5% sodium carboxymethyl cellulose (CMC-Na) was slowly added to 5 ml. The mixture was sonicated, vortexed, and mixed well. 0.2 ml of the final solution prepared above was taken out and stored at −20° C. for the concentration determination.
After fasted overnight (free drinking water), three healthy adult male SD rats (180-250 g, purchased from Chengdu Dossy Experimental Animal Co., Ltd.) were administered by gavaging with a volume of 5 ml/kg; Prior to administration, as well as 0.5 h, 1 h, 2 h, 4 h, 6 h, 8 h, 12 h, 24 h after administration, 0.1 ml of blood was collected from the retroorbital venous plexus, centrifuged at 4° C. for 5 min to separate the plasma, and stored at −20° C. for testing. Then, LC/MS/MS method was used to determine the concentration of the test compound in the plasma.

[3] = system: MC38 tumor model; assay: Pharmacodynamic experiment on MC38 tumor animal model; format: in vivo, C57BL/6 mice; conditions: MC38, group 4: compound 44 50 mg/kg p.o. QD × 21; day 18
Description: Cell culture: MC-38 cells are cultured in DMEM medium containing 10% fetal bovine serum (FBS). MC-38 cells in logarithmic growth phase were collected, and resuspended in HBSS to a concentration suitable for subcutaneous tumor inoculation in C57BL/6 mice.
Experimental animals: C57BL/6 mice, female, 6-8 weeks old, weighing about 18-20 g, 96 mice, purchased from Beijing Vital River Experimental Animal Technology Co., Ltd.
Tumor cell inoculation: Tumor cells in logarithmic growth phase were collected, and the cell concentration was adjusted to 5×10^6/mL with HBSS, then 0.1 mL was subcutaneously inoculated on the right side of each mouse near the back, that is, 5×10^5/mouse. Then, the tumor volume was observed and measured. When the average tumor volume of the mice grew to 50-100 mm^3, the tumor-bearing mice were randomly grouped according to the tumor volume and administered. The detailed information was shown in Table 3, and the day of grouping and administration was defined as day 0.
Calculation of tumor volume: The mice were sacrificed on the 18th day, the tumor was taken out, the tumor volume was measured, and the tumor inhibition rate of each group was calculated.

[4] = system: PAN-02 tumor model; assay: Pharmacodynamic experiment on PAN02 tumor animal model; format: in vivo, C57BL/6 mice; conditions: PAN-02, group 4: compound 44 25 mg/kg i.g. BID; 33 days
Excerpt: The PAN-02 cells in the logarithmic growth phase were collected, washed twice with PBS, and then resuspended in pre-cooled PBS for inoculation. The experimental animals were C57BL/6 mice, females, purchased from Beijing Vital River Experimental Animal Technology Co., Ltd. C57BL/6 mice were adapted to the laboratory environment for 3 days. PAN-02 cells were subcutaneously inoculated into the right ribs, and the amount of cells inoculated was 1×10^6/mouse. When the tumor grew to about 100 mm^3, they will be screened and randomly grouped. Each group included 8 mice. According to Table 4, mice were grouped and administrated as the dosing regimen. The day of grouping and administration was defined as day 1, and the administration period was 33 days.

FAK enzyme, sequence (Q05397 whole entry, species assumed): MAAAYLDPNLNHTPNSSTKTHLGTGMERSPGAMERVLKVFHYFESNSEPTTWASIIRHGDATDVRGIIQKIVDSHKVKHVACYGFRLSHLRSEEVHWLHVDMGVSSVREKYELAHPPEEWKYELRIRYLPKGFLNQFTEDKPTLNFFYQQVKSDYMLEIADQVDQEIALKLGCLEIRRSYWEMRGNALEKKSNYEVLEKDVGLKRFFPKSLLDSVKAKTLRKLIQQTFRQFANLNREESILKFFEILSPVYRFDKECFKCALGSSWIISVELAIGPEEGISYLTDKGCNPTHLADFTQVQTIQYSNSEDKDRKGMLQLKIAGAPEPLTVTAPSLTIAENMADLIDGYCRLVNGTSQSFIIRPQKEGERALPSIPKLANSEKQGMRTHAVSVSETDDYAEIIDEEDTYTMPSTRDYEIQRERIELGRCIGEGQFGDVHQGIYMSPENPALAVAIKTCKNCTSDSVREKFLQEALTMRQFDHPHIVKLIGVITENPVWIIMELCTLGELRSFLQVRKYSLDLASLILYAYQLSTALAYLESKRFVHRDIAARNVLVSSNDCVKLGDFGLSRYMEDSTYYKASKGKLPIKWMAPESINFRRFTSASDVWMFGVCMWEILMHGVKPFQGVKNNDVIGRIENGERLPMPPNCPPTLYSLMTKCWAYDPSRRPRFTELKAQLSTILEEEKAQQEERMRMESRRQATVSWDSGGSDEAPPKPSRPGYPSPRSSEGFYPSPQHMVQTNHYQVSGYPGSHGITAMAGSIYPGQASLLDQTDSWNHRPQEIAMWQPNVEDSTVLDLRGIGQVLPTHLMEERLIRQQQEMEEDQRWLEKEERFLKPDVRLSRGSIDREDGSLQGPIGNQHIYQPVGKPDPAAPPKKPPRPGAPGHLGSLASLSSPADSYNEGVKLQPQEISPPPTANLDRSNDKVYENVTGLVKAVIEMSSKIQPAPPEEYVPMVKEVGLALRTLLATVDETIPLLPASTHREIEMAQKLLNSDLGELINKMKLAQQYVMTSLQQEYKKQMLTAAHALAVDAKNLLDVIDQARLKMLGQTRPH

N-deuteromethyl-4-((4-(((3-(N-deuteromethanesulfonamido) pyrazin-2-yl)deuteromethyl)amino)-5-(trifluoromethyl)pyrimidine-2-yl)amino)benzamide [Compound 45]
pIC50 [1]: 9.82

[2H]C([2H])([2H])NC(=O)c1ccc(Nc2ncc(C(F)(F)F)c(NCc3nccnc3N(C)S(C)(=O)=O)n2)cc1 [Compound 25, N-trideuteromethyl-4-((4-(((3-(N-methanesulfonamido)pyrazin-2-yl)methyl)amino)-5-(trifluoromethyl)pyrimidin-2-yl)amino)benzamide]
half life t1/2 [2]: 1.75 h

[2H]C([2H])([2H])NC(=O)c1ccc(Nc2ncc(C(F)(F)F)c(NCc3nccnc3N(C([2H])([2H])[2H])S(C)(=O)=O)n2)cc1 [Compound 44, N-trideuteromethyl-4-((4-(((3-(N-trideuteromethylmethanesulfonamido)pyrazin-2-yl)methyl)amino)-5-(trifluoromethyl)pyrimidin-2-yl)amino)benzamide]
Tumor inhibition rate [3]: 26.9% | Tumor inhibition rate [4]: 66%
